Some results are limits rather than exact numbers.

The values that follow come from US20250179027A1, “CYCLOALKYL OR HETEROCYCLYL SUBSTITUTED HETEROARYL COMPOUND, AND COMPOSITION AND USE THEREOF” (Shenzhen TargetRx, Inc., priority 2022, published 2025).

Assay [1] concerns the target T1, phosphorylated BTK Y223 in NIH/3T3 BTK C481S cells (Homo sapiens, UniProt Q06187, C481S).
T1 construct: expressed in transfected cells; host or cells: NIH/3T3 (mouse fibroblasts) engineered to express BTK C481S
The assay is described as follows: Phosphor-BTK(Y223) assay, NIH/3T3 BTK C481S cells. Format: cell-based. As to conditions: phosphorylated BTK Y223, NIH/3T3 BTK C481S cells; read-out: NIH/3T3 BTK-C481S pBTK IC50. Here is the method: (§1) The purpose of this assay is to simply, quickly and directly detect the endogenous level of BTK in cells. The specific assay steps are as follows: Day 1: NIH/3T3 BTK WT cells (7.5 k/well) and NIH/3T3 BTK C481S cells (10 k/well) were plated in 96-well plates, respectively, and cultured overnight at 37° C. and 5% CO2.
(§2) • 1. A 3-fold final concentration gradient dilution of the compound was prepared, and 50 μL was added to 100 μL of cell culture; 0.5% DMSO was used as a positive control for cell growth. • 2. The plate was incubated at 37° C., 5% CO2 for 0.5 h. • 3. Na3VO4 with a final concentration of 1 mM was added, and incubated at 37° C. and 5% CO2 for 2 hours. • 4. During the incubation, the following reagents were prepared: 1× added lysis buffer: 3 vol ddH2O+1 vol 4× lysis buffer+100× blocking reagent. p-BTK (Y223) cryptate-antibody and p-BTK (Y223) d2-antibody working solutions: 1 volume of each cryopreserved antibody (stored at −20° C.) was added to 19 times volumes of assay buffer (stored at 4° C.). • 5. After the incubation, the medium was removed and 50 μL of 1× added lysis buffer was added; The mixture was centrifuged at 500 rpm for 30 min at room temperature. • 6. The lysate was mixed well and 16 μL was transferred to a 384-well plate; 1× added lysis buffer was used as a blank control. • 7. 4 μL of pre-mixed working solutions of the two antibodies (cryptate Ab:d2 Ab=1:1) were added and the plate was sealed. • 8. The plate was incubated overnight at room temperature.
(§3) Biotek cytation3.0 microplate reader was used to read the plate at 665 nm and 620 nm, and the ratio of 665/620 nm per well was calculated.
(§4) IC50 was calculated using GraphPad Prism 7.0 software.
(§5) The following nonlinear fitting formula was used to obtain the phosphorylated BTK Y223 IC50 (half phosphorylation inhibitory concentration) of the compounds:
(§6) [formula] • X: Compound concentration log value • Y: Inhibition rate (% inhibition)
(§7) The formula for calculating cell phosphorylation inhibition rate (% inhibition rate) was: […]

For assay [2], the target named is T2, phosphorylated BTK Y223 in NIH/3T3 BTK WT cells (Homo sapiens, UniProt Q06187).
T2 construct: expressed in transfected cells; host or cells: NIH/3T3 (mouse fibroblasts) engineered to express BTK WT
T2 sequence (Q06187 whole entry): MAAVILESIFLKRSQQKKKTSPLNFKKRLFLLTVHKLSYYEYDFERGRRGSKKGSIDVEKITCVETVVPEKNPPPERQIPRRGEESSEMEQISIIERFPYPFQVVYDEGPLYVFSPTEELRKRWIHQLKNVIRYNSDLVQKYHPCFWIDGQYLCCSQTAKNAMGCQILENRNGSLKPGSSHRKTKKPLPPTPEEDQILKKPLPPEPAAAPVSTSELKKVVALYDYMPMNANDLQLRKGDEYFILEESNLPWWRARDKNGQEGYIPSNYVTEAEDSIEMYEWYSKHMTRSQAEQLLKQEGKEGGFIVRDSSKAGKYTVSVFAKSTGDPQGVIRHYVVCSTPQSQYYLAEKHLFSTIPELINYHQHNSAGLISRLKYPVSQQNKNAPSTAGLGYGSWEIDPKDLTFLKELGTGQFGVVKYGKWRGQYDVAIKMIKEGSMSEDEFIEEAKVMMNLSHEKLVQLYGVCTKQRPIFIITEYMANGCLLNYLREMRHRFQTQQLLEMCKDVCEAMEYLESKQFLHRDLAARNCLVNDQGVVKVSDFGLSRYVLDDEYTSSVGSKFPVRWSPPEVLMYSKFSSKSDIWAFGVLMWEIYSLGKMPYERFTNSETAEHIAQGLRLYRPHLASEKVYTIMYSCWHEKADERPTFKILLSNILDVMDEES
Nature of the assay: Phosphor-BTK(Y223) assay, NIH/3T3 BTK WT cells. It counts as cell-based. As to conditions: phosphorylated BTK Y223, NIH/3T3 BTK WT cells; read-out: NIH/3T3 BTK-WT pBTK IC50. As for the experimental part: as §1, §2, §3, §4, §5, §6, §7

T1 sequence (Q06187 whole entry C481S): as the sequence (Q06187 whole entry) above, with C481S counted along it

Regarding `COc1ccc(F)cc1C(=O)NCc1ccc(-c2nn(C3CCC(CO)OC3)c(N)c2C(N)=O)cc1` (single isomer, unassigned) [Example 13, 5-amino-3-(4-((5-fluoro-2-methoxybenzamido)methyl)phenyl)-1-(6-(hydroxymethyl)tetrahydro-2H-pyran-3-yl)-1H-pyrazole-4-carboxamide], the figures for the IC50 in assay [1] and in assay [2] were 100 to 500 nM and 50 to 100 nM, respectively.

Regarding `COc1ccc(F)cc1C(=O)NCc1ccc(-c2nc(C3CCCC(O)C3)n3ccnc(N)c23)cc1` (single isomer, unassigned) [Example 21, N-(4-(8-amino-3-(3-hydroxycyclohexanyl)imidazo[1,5-a]pyrazin-1-yl)benzyl)-5-fluoro-2-methoxybenzamide], the IC50 was in the range of 50 to 100 nM in assay [1] and 25 to 50 nM in assay [2].

`COc1ccc(F)cc1C(=O)NCc1ccc(-c2nn(C3CCCC(C)(O)C3)c3ncnc(N)c23)cc1` (single isomer, unassigned) [Example 28, N-(4-(4-amino-1-(3-hydroxy-3-methylcyclohexanyl)-1H-pyrazolo[3,4-d]pyrimidin-3-yl)benzyl)-5-fluoro-2-methoxybenzamide]: the IC50 is 25 to 50 nM in assay [1] and at most 25 nM in assay [2].

In the case of `COc1ccc(F)cc1C(=O)NCc1ccc(-c2nn([C@@H]3C=C[C@@H](O)C3)c3ncnc(N)c23)cc1` (single isomer, unassigned) [Example 50, trans-N-(4-(4-amino-1-(4-hydroxycyclopent-2-en-1-yl)-1H-pyrazolo[3,4-d]pyrimidin-3-yl)benzyl)-5-fluoro-2-methoxybenzamide], the IC50 in assay [1] was 25 to 50 nM; in assay [2], at most 25 nM.

On to `COc1ccc(F)cc1C(=O)NCc1ccc(-c2nn([C@@H]3C=C[C@@H](O)C3)c3ncnc(N)c23)cc1` (single isomer, unassigned) [Example 37, trans-N-(4-(4-amino-1-(4-hydroxycyclopent-2-en-1-yl)-1H-pyrazolo[3,4-d]pyrimidin-3-yl)benzyl)-5-fluoro-2-methoxybenzamide], for which the IC50 lay within 50 to 100 nM in assay [1] and 25 to 50 nM in assay [2].

Turning to `COc1ccc(F)cc1C(=O)NCc1ccc(-c2nn(C3CCC(CO)OC3)c3ncnc(N)c23)cc1` (single isomer, unassigned) [Example 17, N-(4-(4-amino-1-(6-(hydroxymethyl)tetrahydro-2H-pyran-3-yl)-1H-pyrazolo[3,4-d]pyrimidin-3-yl)benzyl)-5-fluoro-2-methoxybenzamide], the IC50 in assay [1] and in assay [2] was 100 to 500 nM in each case.

In the case of `COc1ccc(F)cc1C(=O)NCc1ccc(-c2nn(C3CCCCC(O)C3)c3ncnc(N)c23)cc1` (stereo not shown) [Example 57, N-(4-(4-amino-1-(3-hydroxycycloheptyl)-1H-pyrazolo[3,4-d]pyrimidin-3-yl)benzyl)-5-fluoro-2-methoxybenzamide], the IC50 was in the range of 50 to 100 nM in assay [1] and 25 to 50 nM in assay [2].

Take `COc1ccc(F)cc1C(=O)NCc1ccc(-c2nn(C3CCC(CO)OC3)c3c(=O)[nH]nc(N)c23)cc1` (stereo not shown) [Example 43, N-(4-(4-amino-1-(6-(hydroxymethyl)tetrahydro-2H-pyran-3-yl)-7-oxo-6,7-dihydro-1H-pyrazolo[3,4-d]pyridazin-3-yl)benzyl)-5-fluoro-2-methoxybenzamide]: the IC50 in assay [1] and in assay [2] was 100 to 500 nM throughout.

In the case of `COc1ccc(F)cc1C(=O)NCc1ccc(-c2cc(C3CCC(CO)OC3)n3ncnc(N)c23)cc1` (single isomer, unassigned) [Example 61, N-(4-(4-amino-7-(6-(hydroxymethyl)tetrahydro-2H-pyran-3-yl)pyrrolo[2,1-f][1,2,4]triazin-5-yl)benzyl)-5-fluoro-2-methoxybenzamide], the results for the IC50 in assay [1] and in assay [2] were 25 to 50 nM and at most 25 nM, respectively.

For the molecule `COc1ccc(F)cc1C(=O)NCc1ccc(-c2nn(C3CCC(O)C3)c3ncnc(N)c23)cc1` (stereo not shown) [Example 32, N-(4-(4-amino-1-(3-hydroxycyclopentanyl)-1H-pyrazolo[3,4-d]pyrimidin-3-yl)benzyl)-5-fluoro-2-methoxybenzamide], the IC50 in assay [1] and in assay [2] was at most 25 nM each time.

Turning to `COc1ccc(F)cc1C(=O)NCc1ccc(-c2nn([C@@H]3C=C[C@@H](O)C3)c3ncnc(N)c23)cc1` (single isomer, unassigned) [Example 38, trans-N-(4-(4-amino-1-(4-hydroxycyclopent-2-en-1-yl)-1H-pyrazolo[3,4-d]pyrimidin-3-yl)benzyl)-5-fluoro-2-methoxybenzamide], the IC50 is 25 to 50 nM in assay [1] and at most 25 nM in assay [2].

For `COc1ccc(F)cc1C(=O)NCc1ccc(-c2nn(C3CCCC(C)(O)C3)c3ncnc(N)c23)cc1` (single isomer, unassigned) [Example 27, N-(4-(4-amino-1-(3-hydroxy-3-methylcyclohexanyl)-1H-pyrazolo[3,4-d]pyrimidin-3-yl)benzyl)-5-fluoro-2-methoxybenzamide], the results for the IC50 in assay [1] and in assay [2] were 25 to 50 nM and at most 25 nM, respectively.

In the case of `COc1ccc(F)cc1C(=O)NCc1ccc(-c2nn([C@@H]3C=C[C@@H](O)C3)c3ncnc(N)c23)cc1` (single isomer, unassigned) [Example 49, trans-N-(4-(4-amino-1-(4-hydroxycyclopent-2-en-1-yl)-1H-pyrazolo[3,4-d]pyrimidin-3-yl)benzyl)-5-fluoro-2-methoxybenzamide], the values for the IC50 in assay [1] and in assay [2] were 25 to 50 nM and at most 25 nM, respectively.

As to `COc1ccc(F)cc1C(=O)NCc1ccc(-c2nn(C3CCCC(O)C3)c(N)c2C(N)=O)cc1` (single isomer, unassigned) [Example 3, 5-amino-3-(4-((5-fluoro-2-methoxybenzamido)methyl)phenyl)-1-(3-hydroxycyclohexyl)-1H-pyrazole-4-carboxamide], the IC50 in assay [1] and in assay [2] was 100 to 500 nM each time.

Regarding `COc1ccc(F)cc1C(=O)NCc1ccc(-c2nn(C3CCCC(O)C3)c3c(=O)[nH]nc(N)c23)cc1` (stereo not shown) [Example 44, N-(4-(4-amino-1-(3-hydroxycyclohexanyl)-7-oxo-6,7-dihydro-1H-pyrazolo[3,4-d]pyridazin-3-yl)benzyl)-5-fluoro-2-methoxybenzamide], the IC50 in assay [1] lay within 100 to 500 nM; in assay [2] it was 50 to 100 nM.

Regarding `COc1ccc(F)cc1C(=O)NCc1ccc(-c2nn(C3CCC(O)C3)c3c(=O)[nH]nc(N)c23)cc1` (stereo not shown) [Example 41, N-(4-(4-amino-1-(3-hydroxycyclopentanyl)-7-oxo-6,7-dihydro-1H-pyrazolo[3,4-d]pyridazin-3-yl)benzyl)-5-fluoro-2-methoxybenzamide], the IC50 in assay [1] was in the range of 50 to 100 nM; in assay [2], 25 to 50 nM.

In the case of `COc1ccc(F)cc1C(=O)NCc1ccc(-c2nn([C@H]3CCC[C@H](O)C3)c3ncnc(N)c23)cc1` (racemic) [Example 9, trans-N-(4-(4-amino-1-(3-hydroxycyclohexanyl)-1H-pyrazolo[3,4-d]pyrimidin-3-yl)benzyl)-5-fluoro-2-methoxybenzamide], the IC50 in assay [1] and in assay [2] was at most 25 nM each time.
